Results reported in patent US20250255977A1, “EPSILON-POLY-L-LYSINE-BASED DRUG CONJUGATE, INTERMEDIATE THEREOF, AND APPLICATION THEREOF” (SHANGHAI BEST-LINK BIOSCIENCE, LLC, priority 2021, published 2025).
Like-named read-outs stand apart in the source and are kept apart here.

Experiments:
[1] = test system: H69 small cell lung cancer; assay: Efficacy on subcutaneous transplanted 1200 mm^3 H69 small cell lung cancer model; type: in vivo, BALB/C nude mice; conditions: topotecan MTD 2 mg/kg (free base) once a day for five days; 1200 mm^3 tumors
Description: Biological Assessment Example I: Comparison of Efficacy of 101B00G and Topotecan on Subcutaneous Transplanted 1200 mm^3 H69 Small Cell Lung Cancer Model

[2] = BALB/C nude, mouse, in vivo, iv, 10 mg/kg
Protocol: Mice were killed at set time points. Plasma was taken after blood centrifugation. Tumor tissues were isolated, temporarily stored in dry ice and then transferred to −80° C. freezer for later use.
Tumor tissues were thawed, weighed and then added a certain amount of 50/50 methanol and water. The mixture was homogenized on the handheld homogenizer with ice bath, centrifuged at 4° C. 6000×g for 10 min, and the supernatant was collected.
30 μL of plasma or homogenized tumor supernatant were taken and added 200 μL of acetonitrile with internal standard (tolbutamide, 50 ng/mL). The mixture was vortexed for 5 min and centrifuged at 6000×g for 10 min. 75 μL of the supernatant was transferred to a 96-well plate pre-added with 75 μL of water and shaked at 500 rpm for 5 min. 2 μL of sample was injected for LC MS/MS analysis.
Column: ACQUITY UPLC BEH C18 (2.1×50 mm, 1.7 μm)
Phase A: 0.1% formic acid/water, Phase B: 0.1% formic acid/acetonitrile

HepG2 tumors = assay: In vivo efficacy in HepG2 xenograft CDX mouse model; set-up: species or system BALB/C nude mice; conditions: Day 33
Protocol: Biological Assessment Example F: […] The tumor volume was calculated as: […] The evaluation criteria are as follows: […]

| Plasma concentration of released drug, average value ([2]; 0.083 h) | Plasma concentration of released drug, average value ([2]; 0.5 h) | Plasma concentration of released drug, average value ([2]; 1 h) | Plasma concentration of released drug, average value ([2]; 3 h) | Plasma concentration of released drug, average value ([2]; 8 h) | Compound | Increase of tumor volume on Day 22 compared with the initial value [1] | TGI (%) / tumor inhibition rate (HepG2 tumors) |
| --- | --- | --- | --- | --- | --- | --- | --- |
| – | – | – | – | – | CC[C@@]1(O)C(=O)OCc2c1cc1n(c2=O)Cc2cc3c(CN(C)C)c(O)ccc3nc2-1 [topotecan] | 22% | – |
| 865 | 385 | 407 | 172.6 | 27.7 | CCc1c2c(nc3ccc(OC(=O)N4CCC(N5CCCCC5)CC4)cc13)-c1cc3c(c(=O)n1C2)COC(=O)[C@]3(O)CC [irinotecan] | – | −49% |
